Results reported in PubChem BioAssay (NCI).
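Five concentrations, 48 hours, 96-well plates. The concentration for full growth arrest is given as TGI.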

Legend:
Assay in all cases: NCI tumour cell line growth inhibition, 48 h
[1] = tested on: SNB-78 CNS
[2] = tested on: XF 498 CNS
[3] = tested on: KM20L2 colon
[4] = tested on: KM12 colon
[5] = tested on: SF-295 CNS
[6] = tested on: HOP-18 NSCLC
[7] = tested on: DLD-1 colon
[8] = tested on: 786-0 renal
[9] = tested on: DMS 114 small cell lung
[10] = tested on: LXFL 529 NSCLC
[11] = tested on: SK-MEL-5 melanoma
[12] = tested on: M19-MEL melanoma
[13] = tested on: HL-60(TB) leukemia
[14] = tested on: DMS 273 small cell lung
[15] = tested on: RXF-631 renal

## COc1ccc2c(c1)CC1NC2Cc2ccccc21 (stereo not given)
[1]
  TGI: > 100 µM
[2]
  TGI: > 100 µM
[3]
  TGI: > 100 µM
[4]
  TGI: > 100 µM
[5]
  TGI: > 100 µM
[6]
  TGI: > 100 µM
[7]
  TGI: > 100 µM
[8]
  TGI: > 100 µM
[9]
  TGI: > 100 µM
[10]
  TGI: > 100 µM
[11]
  TGI: > 100 µM
[12]
  TGI: > 100 µM

## O=C(/C=C(\O)C(=O)O)/C=C(\O)c1ccccc1Cl
[2]
  TGI: > 100 µM
[3]
  TGI: > 100 µM
[4]
  TGI: > 100 µM
[5]
  TGI: > 100 µM
[6]
  TGI: > 100 µM
[7]
  TGI: > 100 µM
[8]
  TGI: > 100 µM
[13]
  TGI: > 100 µM
[9]
  TGI: > 100 µM
[10]
  TGI: > 100 µM
[14]
  TGI: > 100 µM
[11]
  TGI: > 100 µM

## O=C1OC(c2ccccc2)(c2ccccc2)CC1CN1CCOCC1 (stereo not given)
[3]
  TGI: 36.6 µM
[4]
  TGI: 30.8 µM
[6]
  TGI: 27.7 µM
[15]
  TGI: 43.8 µM
[7]
  TGI: 31.8 µM
[8]
  TGI: 30.4 µM
[13]
  TGI: 28.3 µM
[9]
  TGI: 32.6 µM
[10]
  TGI: 26.9 µM
[14]
  TGI: > 100 µM
[11]
  TGI: > 100 µM
[12]
  TGI: 31 µM

## c1ccc2c(NCCCCCCCCNc3cccc4ccccc34)cccc2c1
[1]
  TGI: > 100 µM
[2]
  TGI: > 100 µM
[3]
  TGI: > 100 µM
[4]
  TGI: > 100 µM
[5]
  TGI: > 100 µM
[6]
  TGI: 58.6 µM
[15]
  TGI: 34.5 µM
[7]
  TGI: > 100 µM
[8]
  TGI: 57.1 µM
[13]
  TGI: 50.7 µM
[9]
  TGI: 68.2 µM
[10]
  TGI: 38.1 µM
[14]
  TGI: 80.6 µM
[11]
  TGI: > 10 µM
[12]
  TGI: > 10 µM

## CCCCC1(OC(=O)CCC(=O)O)CCC2(CCC(C)C(C/C=C(C)/C=C/C(O)C(C)/C=C/C(=O)O)O2)OC1CC/C(C)=C/C(=O)O (stereo not given)
[1]
  TGI: 7.75 µM
[2]
  TGI: 4.66 µM
[3]
  TGI: 46.8 µM
[4]
  TGI: 11.8 µM
[5]
  TGI: 15.8 µM
[6]
  TGI: 29.8 µM
[15]
  TGI: 5.7 µM
[7]
  TGI: 13.8 µM
[8]
  TGI: 14.3 µM
[13]
  TGI: 24.5 µM
[9]
  TGI: 8.56 µM
[10]
  TGI: 3.83 µM
[14]
  TGI: 18.2 µM
[11]
  TGI: 3.14 µM
[12]
  TGI: 7.95 µM

## CC1C(c2ccccc2)=CCON1c1ccccc1 (stereo not given)
[1]
  TGI: > 100 µM
[2]
  TGI: > 100 µM
[3]
  TGI: > 100 µM
[4]
  TGI: > 100 µM
[5]
  TGI: > 100 µM
[7]
  TGI: > 100 µM
[8]
  TGI: > 100 µM
[13]
  TGI: > 100 µM
[9]
  TGI: > 100 µM
[10]
  TGI: > 100 µM
[11]
  TGI: > 100 µM
[12]
  TGI: > 100 µM

## Clc1ccc2c(Cl)ncnc2c1I
[2]
  TGI: > 100 µM
[3]
  TGI: > 100 µM
[4]
  TGI: > 100 µM
[5]
  TGI: > 100 µM
[7]
  TGI: > 100 µM
[8]
  TGI: > 100 µM
[13]
  TGI: 44.6 µM
[9]
  TGI: > 100 µM
[10]
  TGI: > 100 µM
[14]
  TGI: > 100 µM
[11]
  TGI: > 100 µM
[12]
  TGI: > 100 µM

## Cc1nc(Nc2ccccc2)sc1C(=O)NNC(N)=O
[1]
  TGI: > 100 µM
[2]
  TGI: > 100 µM
[3]
  TGI: > 100 µM
[4]
  TGI: > 100 µM
[5]
  TGI: > 100 µM
[6]
  TGI: > 100 µM
[7]
  TGI: > 100 µM
[8]
  TGI: > 100 µM
[13]
  TGI: > 100 µM
[9]
  TGI: > 100 µM
[10]
  TGI: > 100 µM
[14]
  TGI: > 100 µM
[11]
  TGI: > 100 µM
[12]
  TGI: > 100 µM

## BrC12C3C4C5C(C(C43)C13OCCO3)C52 (stereo not given)
[1]
  TGI: > 100 µM
[2]
  TGI: > 100 µM
[3]
  TGI: > 100 µM
[4]
  TGI: > 100 µM
[5]
  TGI: > 100 µM
[6]
  TGI: > 100 µM
[15]
  TGI: > 100 µM
[7]
  TGI: > 100 µM
[8]
  TGI: > 100 µM
[13]
  TGI: > 100 µM
[9]
  TGI: > 100 µM
[10]
  TGI: > 100 µM
[14]
  TGI: > 100 µM
[11]
  TGI: > 100 µM
[12]
  TGI: > 100 µM

## CC(C)C1=CC(=O)C(C)(C2=NC(C)(C)CO2)c2ccccc21 (stereo not given)
[2]
  TGI: > 100 µM
[3]
  TGI: > 100 µM
[4]
  TGI: > 100 µM
[5]
  TGI: > 100 µM
[6]
  TGI: > 100 µM
[15]
  TGI: > 100 µM
[7]
  TGI: > 100 µM
[8]
  TGI: > 100 µM
[13]
  TGI: > 100 µM
[9]
  TGI: > 100 µM
[10]
  TGI: > 100 µM
[14]
  TGI: > 100 µM
[11]
  TGI: > 100 µM
[12]
  TGI: > 100 µM

## Cc1cccc(NC(=O)CSc2nnc(Cc3ccccc3)o2)c1
[1]
  TGI: > 100 µM
[3]
  TGI: > 100 µM
[4]
  TGI: > 100 µM
[5]
  TGI: > 100 µM
[6]
  TGI: > 100 µM
[7]
  TGI: > 100 µM
[8]
  TGI: > 100 µM
[13]
  TGI: > 100 µM
[9]
  TGI: > 100 µM
[10]
  TGI: > 100 µM
[14]
  TGI: > 100 µM
[11]
  TGI: > 100 µM

## CC[N+](CC)(CC)Cc1cn(S(=O)(=O)c2ccccc2)c2ccccc12
[2]
  TGI: > 100 µM
[3]
  TGI: > 100 µM
[4]
  TGI: > 100 µM
[5]
  TGI: > 100 µM
[7]
  TGI: > 100 µM
[8]
  TGI: > 100 µM
[13]
  TGI: > 100 µM
[9]
  TGI: > 100 µM
[14]
  TGI: > 100 µM
[11]
  TGI: > 100 µM
[12]
  TGI: > 100 µM

## Cc1c(C(=O)Nc2ccc(Cl)c(C(F)(F)F)c2)oc2cc(O)ccc2/c1=N\NC(N)=S
[1]
  TGI: > 100 µM
[2]
  TGI: > 100 µM
[3]
  TGI: > 100 µM
[4]
  TGI: > 100 µM
[5]
  TGI: > 100 µM
[6]
  TGI: > 100 µM
[7]
  TGI: > 100 µM
[8]
  TGI: > 100 µM
[13]
  TGI: > 100 µM
[9]
  TGI: > 100 µM
[10]
  TGI: > 100 µM
[14]
  TGI: > 100 µM
[11]
  TGI: > 100 µM
[12]
  TGI: > 100 µM

## NC(=S)Nc1nnc(-c2ccc(-c3nnc(NC(N)=S)o3)cc2)o1
[1]
  TGI: > 100 µM
[3]
  TGI: > 100 µM
[4]
  TGI: > 100 µM
[5]
  TGI: > 100 µM
[6]
  TGI: > 100 µM
[7]
  TGI: > 100 µM
[8]
  TGI: > 100 µM
[13]
  TGI: > 100 µM
[9]
  TGI: > 100 µM
[10]
  TGI: > 100 µM
[14]
  TGI: > 100 µM
[11]
  TGI: > 100 µM
[12]
  TGI: > 100 µM

## Cc1nc2c(s/c(=N\N)n2-c2ccccc2)c(=O)[nH]1
[1]
  TGI: > 100 µM
[2]
  TGI: > 100 µM
[3]
  TGI: > 100 µM
[4]
  TGI: > 100 µM
[5]
  TGI: > 100 µM
[7]
  TGI: > 100 µM
[8]
  TGI: > 100 µM
[13]
  TGI: > 100 µM
[9]
  TGI: > 100 µM
[10]
  TGI: > 100 µM
[14]
  TGI: > 100 µM
[11]
  TGI: > 100 µM
[12]
  TGI: > 100 µM

## CC1=C(N(C)C)C(=O)c2nc3n(c2C1=O)CCC3OC(N)=O (stereo not given)
[1]
  TGI: 40.9 µM
[2]
  TGI: 38.8 µM
[3]
  TGI: 38.6 µM
[4]
  TGI: 31.5 µM
[5]
  TGI: 28.5 µM
[6]
  TGI: 32 µM
[7]
  TGI: 29.9 µM
[8]
  TGI: 31.6 µM
[13]
  TGI: 31.6 µM
[9]
  TGI: 30.6 µM
[14]
  TGI: 29.3 µM
[11]
  TGI: 23.7 µM
[12]
  TGI: 3.12 µM

## N=c1oc2cc(O)c(O)cc2cc1C(N)=O
[1]
  TGI: > 100 µM
[2]
  TGI: > 100 µM
[3]
  TGI: > 100 µM
[4]
  TGI: > 100 µM
[5]
  TGI: > 100 µM
[15]
  TGI: > 100 µM
[7]
  TGI: > 100 µM
[8]
  TGI: > 100 µM
[9]
  TGI: > 100 µM
[10]
  TGI: > 100 µM
[14]
  TGI: > 100 µM
[11]
  TGI: > 100 µM
[12]
  TGI: > 100 µM

## C1=Cc2nc1c(-c1ccccc1)c1ccc([n-]1)c(-c1ccccc1)c1nc(c(-c3ccccc3)c3ccc([n-]3)c2-c2ccccc2)C=C1.[Zn+2]
[1]
  TGI: > 100 µM
[2]
  TGI: > 100 µM
[3]
  TGI: > 100 µM
[4]
  TGI: > 100 µM
[5]
  TGI: > 100 µM
[15]
  TGI: > 100 µM
[7]
  TGI: > 100 µM
[8]
  TGI: > 100 µM
[13]
  TGI: > 100 µM
[9]
  TGI: > 100 µM
[10]
  TGI: > 100 µM
[11]
  TGI: > 100 µM
[12]
  TGI: > 100 µM
